Measured values reported in patent publication US5270322A, “Imidazo[1,2-a]pyridines, pharmaceutical compositions containing these compounds and processes for preparing them” (Dr. Karl Thomae GmbH, priority 1992, dated 1993).

Biological target: T1, Angiotensin II-Receptor (Rattus norvegicus, UniProt P25095)
T1 construct: The tissue (rats lung) is homogenised in Tris-buffer; from tissue; host or cells: rat lung homogenate
T1 sequence (P25095 1-359): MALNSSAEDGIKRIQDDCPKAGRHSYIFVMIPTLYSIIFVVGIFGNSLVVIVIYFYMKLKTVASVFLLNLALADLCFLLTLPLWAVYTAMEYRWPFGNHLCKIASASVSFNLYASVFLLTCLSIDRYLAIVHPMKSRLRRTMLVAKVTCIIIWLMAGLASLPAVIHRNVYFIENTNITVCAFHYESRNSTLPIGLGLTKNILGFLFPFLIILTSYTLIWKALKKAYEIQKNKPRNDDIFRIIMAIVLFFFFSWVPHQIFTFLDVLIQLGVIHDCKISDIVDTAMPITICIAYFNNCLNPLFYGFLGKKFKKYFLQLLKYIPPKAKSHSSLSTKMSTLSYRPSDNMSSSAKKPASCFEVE
Test: Angiotensin II-Receptor Bonding
Type: binding
Conditions: rats lung homogenate; 50 pM [125I]-angiotensin II; 60 minutes at 37° C.; pH 7.40
Protocol: Description of Method: Angiotensin II-Receptor Bonding
The tissue (rats lung) is homogenised in Tris-buffer (50 mMol Tris, 150 mMol NaCl, 5 mMol EDTA, pH 7.40) and centrifuged twice for 20 minutes at 20,000×g. The finished pellets are resuspended in incubating buffer [, (50 mMol Tris, 5 mMol MgC12, 0.2% BSA, pH 7.40) 1:75, based on the moist weight of the tissue. Each 0.1 ml of homogenate is incubated for 60 minutes at 37° C. with 50 pM [^125 I]-angiotensin II (NEN, Dreieich, FRG) with increasing concentrations of the test substance in a total volume of 0.25 ml. Incubation is ended by rapid filtration through glass fibre filter mats. The filters are each washed with 4 ml of ice cold buffer (25 mMol Tris, 2.5 mMol MgCl2, 0.1% BSA, pH 7.40). The bound radioactivity is measured using a gamma-counter. The corresponding IC50 value is obtained from the dose-activity curve.

SMILES	IC50 [µM]
CCc1cn2c(C(OC(C)=O)c3ccc(-c4ccccc4C(=O)O)cc3)ccc(C)c2n1 (racemic) [Substance B, (R,S)-2-ethyl-8-methyl-5-[α-(2'-carboxybiphenyl-4-yl)-α-acetoxy-methyl]imidazo[1,2-a]pyridine]	0.03
CCCc1cn2c(C(O)c3ccc(-c4ccccc4C(=O)O)cc3)ccc(C)c2n1 (racemic) [Substance D, (R,S)-2-n-Propyl-8-methyl-5-[α-(2'-carboxybiphenyl-4-yl)-α-hydroxy-methyl]imidazo[1,2-a]pyridine-hydrate]	0.42
CCc1cn2c(C(OC(=O)NC3CCCCC3)c3ccc(-c4ccccc4C(=O)O)cc3)ccc(C)c2n1 (racemic) [Substance C, (R,S)-2-Ethyl-8-methyl-5-[α-(2'-carboxybiphenyl-4-yl)-α-cyclohexylaminocarbonyloxy-methyl]imidazo[1,2-a]pyridine]	0.23
CCc1cn2c(C(O)c3ccc(-c4ccccc4C(=O)O)cc3)ccc(C)c2n1 (racemic) [Substance A, (R,S)-2-ethyl-8-methyl-5-[α-(2'-carboxybiphenyl-4-yl)-α-hydroxy-methyl]imidazo[1,2-a]pyridine]	0.046
